According to patent publication EP0611660A2, “Condensed 5-membered heterocycles, process for their preparation and medicines containing these compounds” (Dr. Karl Thomae GmbH, priority 1993, dated 1994):
Where a name gives a salt, the structure may show the parent alone.

The compounds below were run on Thrombozytenaggregation (assay: Antithrombotic effect: collagen-induced platelet aggregation (Born and Cross) in platelet-rich plasma). Conditions: human platelet-rich plasma, 10 min preincubation at 37 °C, 50% change of optical density, read-out: Hemmung der Plättchenaggregation EC50.
Format: cell-based
Text: 2. Antithrombotische Wirkung: Methodik Die Thrombozytenaggregation wird nach der Methode von Born und Cross (J. Physiol. 170, 397 (1964)) in plättchenreichem Plasma gesunder Versuchspersonen gemessen. Zur Gerinnungshemmung wird das Blut mit Natriumcitrat 3,14 % im Volumenverhältnis 1:10 versetzt. Collagen-induzierte Aggregation Der […] Substanz photometrisch gemessen und registriert. Aus dem Neigungswinkel der Dichtekurve wird auf die Aggregationsgeschwindigkeit geschlossen. Der Punkt der Kurve, bei dem die größte Lichtdurchlässigkeit vorliegt, dient zur Berechnung der "optical density". Die Collagen-Menge wird möglichst gering gewählt, aber doch so, daß sich eine irreversibel verlaufende Reaktionskurve ergibt. Verwendet wird das handelsübliche Collagen der Firma Hormonchemie, München. Vor der Collagen-Zugabe wird das Plasma jeweils 10 Minuten mit der Substanz bei 37 ° C inkubiert. Aus den erhaltenen Meßzahlen wird graphisch eine EC50 bestimmt, die sich auf eine 50%ige Änderung der "optical density" […].

Row | SMILES | IC50 [µM]
1 | Cn1c(-c2ccc(C3CCNCC3)cc2)nc2cc(C=CC(=O)O)ccc21 [1(67), 5-(2-Carboxy-ethenyl)-1-methyl-2-[4-(4-piperidinyl)-phenyl]-benzimidazol-dihydrobromid] | 2.3
2 | Cn1c(=O)n(CCCCC(=O)O)c(=O)c2[nH]c(CCC3CCNCC3)nc21 [1(48), 1-(4-Carboxy-butyl)-3-methyl-8-[2-(4-piperidinyl)ethyl]-xanthin-dihydrochlorid] | 0.25
3 | Cn1c(CCC2CCNCC2)nc2cc(C(=O)CCCC(=O)O)ccc21 [1(15), 5-(4-Carboxy-1-oxo-butyl)-1-methyl-2-[2-(4-piperidinyl)-ethyl]-benzimidazol-dihydrobromid] | 1.25
4 | O=C(O)CCCCn1c(=O)c2nc(CCC3CCNCC3)n3c2n(c1=O)CCC3 [1(63), 9-(4-Carboxy-butyl)-2-[2-(4-piperidinyl)-ethyl]-8,10-dioxo-5,6-dihydro-4H,9H-pyrimido[1,2,3-cd]purin-dihydrobromid] | 4.4
5 | Cn1c(CCC2CCNCC2)nc2c(=O)n(CCCCC(=O)O)c(=O)n(C)c21 [1(49), 1-(4-Carboxy-butyl)-3,9-dimethyl-8-[2-(4-piperidinyl)-ethyl]-xanthin-dihydrobromid] | 0.15
6 | Cn1c(CCC2CCNCC2)nc2c1c(=O)n(CCCCC(=O)O)c(=O)n2C [6(12), 1-(4-Carboxy-butyl)-3,7-dimethyl-8-[2-(4-piperidinyl)-ethyl]-xanthin] | 6.4
7 | N=C(N)c1ccc(-c2nc3c(=O)n(CCCCC(=O)O)c(=O)n4c3n2CCC4)cc1 [1(61), 2-(4-Amidino-phenyl)-9-(4-carboxy-butyl)-8,10-dioxo-5,6-dihydro-4H,9H-pyrimido[1,2,3-cd]purin-dih-ydrobromid] | 0.11
8 | Cn1c(CCC2CCNCC2)nc2cc(C(=O)NCCC(=O)O)ccc21 [Beispiel 1, 5-[(2-Carboxy-ethyl)-aminocarbonyl]-1-methyl-2-[2-(4-piperidinyl)-ethyl]-benzimidazol-dihydrobromid] | 0.43
9 | Cn1c(C(=O)NC2CCNCC2)nc2cc(C(=O)NCCC(=O)O)ccc21 [1(1), 5-[(2-Carboxy-ethyl)-aminocarbonyl]-1-methyl-2-[(4-piperidinyl)-aminocarbonyl]-benzimidazol-dihydro-bromid] | > 10
10 | COC(=O)CCCCn1c(=O)c2nc(-c3ccc(C(=N)N)cc3)n3c2n(c1=O)CCC3 [7(12), 2-(4-Amidino-phenyl)-9-(4-methoxycarbonyl-butyl)-8,10-dioxo-5,6-dihydro-4H,9H-pyrimido[1,2,3-cd]-purin] | 0.66
11 | COC(=O)CCNC(=O)c1ccc2c(c1)nc(CCC1CCNCC1)n2C [Beispiel 2, 5-[(2-Methoxycarbonyl-ethyl)-aminocarbonyl]-1-methyl-2-[2-(4-piperidinyl)-ethyl]-benzimidazol] | 2
12 | Cn1c(=O)n(CCCCC(=O)O)c(=O)c2[nH]c([C@H]3CC[C@H](CN)CC3)nc21 [1(64), 8-(trans-4-Aminomethyl-cyclohexyl)-1-(4-carboxy-butyl)-3-methyl-xanthin-dihydrochlorid] | 30
